The values that follow come from publication PMC4268243 (Nuclear medicine and biology, 2014).

Structures are written as SMILES. “Also recorded” adds a separate entry of the source.

The subject of data set [1] is SKOV3 estrogen-positive ovarian adenocarcinoma cells. As to the kind of experiment: Amino acid uptake and inhibition in SKOV3 cells. In kind it is cell-based, human. The following applies: SKOV3, 30 minutes incubation.
Data set [2] deals with U87 glioblastoma cells. As to the kind of experiment: Amino acid uptake and inhibition in U87 cells. Type of data set: cell-based, human. The settings on record: U87, 30 minutes incubation.
For data set [3], the system named is A549 lung adenocarcinoma cells. Briefly: Amino acid uptake and inhibition in A549 cells. In kind it is cell-based, human. The following applies: A549, 30 minutes incubation.
Data set [4] concerns SKOV3 tumor xenograft. As to the kind of experiment: Biodistribution in SKOV3 tumor-bearing SCID mice. In kind it is in vivo. The following applies: listed as (R)-[^18F]MeFAMP 2.
Data set [5] relates to MDA MB468 estrogen-independent breast carcinoma cells. As to the kind of experiment: Amino acid uptake and inhibition in MDA MB468 cells. The settings on record: MDA MB468, 30 minutes incubation. Type of data set: cell-based, human.
Data set [6] deals with SCID mice xenograft tumor models. Type of data set: in vivo. The settings on record: in most cases, over tumors and time points.
Data set [7] has as its system U87 tumor xenograft. Briefly: Biodistribution in U87 tumor-bearing SCID mice. In kind it is in vivo. The following applies: listed as (R)-[^18F]MeFAMP 2.
The subject of data set [8] is DU145 androgen-independent prostate carcinoma cells. As to the kind of experiment: Amino acid uptake and inhibition in DU145 cells. Type of data set: cell-based, human. The following applies: DU145, 30 minutes incubation.
For data set [9], the system named is MDA MB468 tumor xenograft. Briefly: Biodistribution in MDA MB468 tumor-bearing SCID mice. Type of data set: in vivo. The following applies: listed as (R)-[^18F]MeFAMP 2.
For data set [10], the system named is human A549, DU145, U87, MDA MB468 and SKOV3 tumor cells. As to the kind of experiment: Amino acid uptake and inhibition, summary over the five tumor cell lines. In kind it is cell-based.
Data set [11] concerns DU145 tumor xenograft. As to the kind of experiment: Biodistribution in DU145 tumor-bearing SCID mice. The following applies: listed as (R)-[^18F]MeFAMP 2. In kind it is in vivo.
Data set [12] has as its system A549 tumor xenograft. As to the kind of experiment: Biodistribution in A549 tumor-bearing SCID mice. In kind it is in vivo. The settings on record: listed as (R)-[^18F]MeFAMP 2.
For data set [13], the system named is rat orthotopic brain tumor model. The settings on record: rat model; cited from earlier work.
A short description of data set [14]: Brain uptake of [18F]FET in nude mice. Type of data set: in vivo.

For the compound `CN[C@@](C)(C[18F])C(=O)O` [(R)-[^18F]2] [3-[^18F]fluoro-2-methyl-2-N-(methylamino)propanoic acid], the Cell uptake in data set [1] (10 mM BCH) was 4.5±0.7 % ID/5×10^5 cells; in data set [1] (10 mM MeAIB) it was 0.5±0.2 % ID/5×10^5 cells; in [1] (Control (no inhibitor)), 3.9±0.6 % ID/5×10^5 cells; in data set [2] (10 mM BCH), 3.5±0.2 % ID/5×10^5 cells; in data set [2] (10 mM MeAIB), 0.6±0.1 % ID/5×10^5 cells; in [2] (Control (no inhibitor)) it was 2.7±0.3 % ID/5×10^5 cells. Besides, the Cell uptake is on record as 3.1±0.1 % ID/5×10^5 cells in [3] (10 mM BCH); 0.4±0.04 % ID/5×10^5 cells in data set [3] (10 mM MeAIB); 2.4±0.2 % ID/5×10^5 cells in [3] (Control (no inhibitor)); 1.5±0.2 % ID/5×10^5 cells in data set [5] (10 mM BCH); 0.5±0.2 % ID/5×10^5 cells in data set [5] (10 mM MeAIB); 1.4±0.1 % ID/5×10^5 cells in data set [5] (Control (no inhibitor)). The Cell uptake in data set [8] (10 mM BCH) turned out to be 1.9±0.1 % ID/5×10^5 cells; in data set [8] (10 mM MeAIB) it was 0.4±0.1 % ID/5×10^5 cells; in data set [8] (Control (no inhibitor)) it was 1.5±0.2 % ID/5×10^5 cells. Besides, the uptake in tumor in [4] (60 min post injection) came out at 7.5±1.8 %ID/g; in data set [7] (30 min post injection), 5.9±1.1 %ID/g; in data set [7] (60 min post injection), 5.8±0.8 %ID/g; in data set [11] (15 min post injection) it was 5.2±1.2 %ID/g; in data set [12] (15 min post injection), 5.3±1.9 %ID/g; in data set [12] (30 min post injection), 6.3±1.3 %ID/g. The uptake in spleen came to 6.8±0.6 %ID/g in data set [4] (120 min post injection); 6.1±0.5 %ID/g in data set [7] (120 min post injection); 6.6±0.8 %ID/g in data set [9] (120 min post injection); 7.4±1.6 %ID/g in data set [11] (120 min post injection); 9.8±1.3 %ID/g in data set [12] (30 min post injection). Also, in data set [6], the “ratio of tumor to muscle” value is > 4. The values for the uptake in pancreas in data set [7] (15 min post injection), in [9] (15 min post injection) and in data set [11] (30 min post injection) were 74±11 %ID/g, 59±3.3 %ID/g and 53±17 %ID/g, respectively. Further, the uptake in kidney in [7] (60 min post injection) turned out to be 6.8±1.3 %ID/g; in [9] (60 min post injection), 5.9±0.8 %ID/g. Besides, the uptake in liver in [7] (60 min post injection) is recorded as 6.8±1.3 %ID/g; in data set [11] (15 min post injection), 7.8±1.2 %ID/g; in data set [12] (30 min post injection), 7.5±1.5 %ID/g; in data set [12] (60 min post injection), 5.2±0.3 %ID/g. The “inhibition of uptake by BCH” value in data set [10] (10 mM BCH, relative to control, most cell lines) was “no BCH inhibition was observed in most cases”. In addition, in [10] (10 mM MeAIB, relative to control, most cell lines), the “inhibition of uptake by MeAIB” value was 50-91%. Also, the “uptake in tumor cells” value in data set [10] (30 minutes incubation, without inhibitors, range over the cell lines) was 1-7 %ID/5×10^5 cells. For the same compound, the “amino acid transport system mediating uptake / selectivity” value in [10] (AAT cell inhibition assays with MeAIB and BCH) was “high selectivity for system A AAT; also recorded: the most selective for system A transport”.
With `NC1(C(=O)O)CC([18F])C1` (stereo not shown) [[^18F]FACBC, [18F]1-amino-3-fluorocyclobutane-1-carboxylic acid, reference compound], the brain uptake in data set [13] was 0.26±0.03 %ID/g.
`N[C@@H](Cc1ccc(OCC[18F])cc1)C(=O)O` [[^18F]FET, O-(2-[^18F]fluoroethyl)-L-tyrosine]: the “fold higher brain uptake than [18F]1” value in data set [14] ([18F]FET in nude mice vs [18F]1 in SCID mice) is 2.5-3.5 fold. Also, the “fold higher brain uptake than [18F]2” value in [14] ([18F]FET in nude mice vs [18F]2 in SCID mice) is reported as 7-14 fold.
